Source: paper PMC9760738, “Pharmacokinetics, absorption, distribution, metabolism and excretion of the MEK inhibitor zapnometinib in rats” (Frontiers in Pharmacology, 2022)

Test: QWBA tissue radioactivity, single oral 30 mg/kg, male partially pigmented rats (Group 3); 0.5, 2, 4, 8, 24, 72, 168 h
Format: in vivo, rat
Experimental: The whole-body autoradiography techniques by Ullberg and Larsson was used in this study ([Ullberg and Larsson 1981]). Following a single oral administration of [^14C]-zapnometinib to seven male and seven female partially pigmented rats (Group 3) and four male albino rats (Group 4), one animal per sex (where appropriate) was killed at the following time points post dose: Group 3 (pigmented): 0.5, 2, 4, 8, 24, 72, and 168 h, Group 4 (albino): 2, 24, 72 and 168 h. At sacrifice, each rat was anaesthetized with isoflurane and a blood sample (ca 5 ml) was collected by cardiac puncture into a tube containing K2EDTA anticoagulant. Blood was centrifuged at 2000 ×g for 10 min at 4°C to obtain plasma, which was transferred into plain tubes pending measurement of radioactivity concentration. The blood cells were also retained for analysis.
The rat carcasses were immediately attached to a plate and frozen in a bath of n-heptane and solid CO2 at ca –80°C and then stored at –20 ± 10°C until taken for sectioning. […] [^14C]-Blood standards containing six different known concentrations of radioactivity were used to construct the calibration line for the quantitative determination of tissue concentrations of radioactivity. […] The electronic images of all sections were analyzed at Labcorp–Huntingdon using a validated image analysis package (Seescan Densitometry software, version 2.0). […]

O=C(O)c1ccc(F)c(F)c1Nc1ccc(I)cc1Cl [zapnometinib, 2-(2-Chloro-4-iodophenylamino)-3,4-difluorobenzoic acid]
Radioactivity in all remaining tissues (2 h, male): ≤ 70.0 μg equivs/g | Penetration into the brain (whole body autoradiography): low
